Results on 20 compounds are retold here after US20260085053A1, “BENZOFURAN DERIVATIVES AS SIK INHIBITORS AND THE USE THEREOF” (BEONE MEDICINES I GMBH, priority 2023, published 2026).

For orientation: IC50 means the concentration at which inhibition is half-maximal.

Experiment [1] has as its target T1, SIK1 kinase (aa1-303, Thermo Fisher) (Homo sapiens, UniProt P57059).
T1 construct: SIK1 kinase (aa1-303, Thermo Fisher); purchased Thermo Fisher
As to the kind of experiment: Biochemical activities determination for SIK1 protein (TR-FRET). The following applies: 110 uM ATP, 0.5 μM STK1 substrate. The essentials:
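TR-FRET kinase assay with SIK1 (aa1-303), 110 uM ATP, 0.5 μM STK1 substrate and 0-10 μM compound in Tris pH 7.5 with MgCl2, EGTA, DTT, Triton X-100. Enzyme preincubated with compound 60 min, reaction 180 min at room temperature; 665/620 nm ratio after overnight detection; IC50 from four-parameter logistic fit.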
(In general: In TR-FRET formats the signal depends on donor and acceptor labels being close together.)

Experiment [2] concerns the target T2, SIK2 kinase (full length, Thermo Fisher) (Homo sapiens, UniProt Q9H0K1).
T2 construct: SIK2 kinase (full length, Thermo Fisher); purchased Thermo Fisher
As to the kind of experiment: Biochemical activities determination for SIK2 protein (TR-FRET). To be noted: 80 uM ATP, 0.5 μM substrate. Summed up: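 Full-length SIK2 preincubated 60 min with 0–10 μM compound, then reacted 180 min at room temperature with 80 uM ATP and 0.5 μM biotinylated substrate (pH 7.5 Tris/MgCl2 buffer). Phosphorylation detected by TR-FRET (665/620 nm ratio, cryptate antibody/streptavidin-XL665) after overnight incubation; IC50 from four-parameter logistic fit.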

Experiment [3] deals with T3, SIK3 kinase (aa59-365, Thermo Fisher) (Homo sapiens, UniProt Q9Y2K2).
T3 construct: SIK3 kinase (aa59-365, Thermo Fisher); purchased Thermo Fisher
T3 sequence (Q9Y2K2 59-365): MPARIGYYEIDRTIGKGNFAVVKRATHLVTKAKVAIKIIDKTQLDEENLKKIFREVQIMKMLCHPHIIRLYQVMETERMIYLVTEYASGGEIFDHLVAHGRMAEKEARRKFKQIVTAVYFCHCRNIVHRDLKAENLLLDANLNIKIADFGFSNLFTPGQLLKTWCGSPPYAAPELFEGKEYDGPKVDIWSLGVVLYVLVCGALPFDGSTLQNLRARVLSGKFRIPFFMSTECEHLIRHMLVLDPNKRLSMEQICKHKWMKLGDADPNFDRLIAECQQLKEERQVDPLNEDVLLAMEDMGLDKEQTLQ
As to the kind of experiment: Biochemical activities determination for SIK3 protein (TR-FRET). To be noted: 125 uM ATP, 0.5 μM STK1 substrate. Summed up: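 SIK3 (aa59-365) was preincubated with compound (0-10 μM) for 60 min at room temperature in Tris buffer pH 7.5. The reaction was then started with 125 uM ATP and 0.5 μM STK1 substrate and run 180 min at room temperature. Phospho-substrate was detected by HTRF (665/620 nm ratio), and IC50 came from a four-parameter logistic fit.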

T1 sequence (P57059 1-303): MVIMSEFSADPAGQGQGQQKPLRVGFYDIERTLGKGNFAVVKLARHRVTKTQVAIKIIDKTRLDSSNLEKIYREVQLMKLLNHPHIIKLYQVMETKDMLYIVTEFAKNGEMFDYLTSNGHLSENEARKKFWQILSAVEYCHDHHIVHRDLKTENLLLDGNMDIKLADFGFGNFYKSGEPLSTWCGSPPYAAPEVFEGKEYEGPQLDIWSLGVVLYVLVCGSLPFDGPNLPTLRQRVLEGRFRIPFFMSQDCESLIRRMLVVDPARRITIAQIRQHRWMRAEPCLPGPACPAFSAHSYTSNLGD
T2 sequence (Q9H0K1 whole entry): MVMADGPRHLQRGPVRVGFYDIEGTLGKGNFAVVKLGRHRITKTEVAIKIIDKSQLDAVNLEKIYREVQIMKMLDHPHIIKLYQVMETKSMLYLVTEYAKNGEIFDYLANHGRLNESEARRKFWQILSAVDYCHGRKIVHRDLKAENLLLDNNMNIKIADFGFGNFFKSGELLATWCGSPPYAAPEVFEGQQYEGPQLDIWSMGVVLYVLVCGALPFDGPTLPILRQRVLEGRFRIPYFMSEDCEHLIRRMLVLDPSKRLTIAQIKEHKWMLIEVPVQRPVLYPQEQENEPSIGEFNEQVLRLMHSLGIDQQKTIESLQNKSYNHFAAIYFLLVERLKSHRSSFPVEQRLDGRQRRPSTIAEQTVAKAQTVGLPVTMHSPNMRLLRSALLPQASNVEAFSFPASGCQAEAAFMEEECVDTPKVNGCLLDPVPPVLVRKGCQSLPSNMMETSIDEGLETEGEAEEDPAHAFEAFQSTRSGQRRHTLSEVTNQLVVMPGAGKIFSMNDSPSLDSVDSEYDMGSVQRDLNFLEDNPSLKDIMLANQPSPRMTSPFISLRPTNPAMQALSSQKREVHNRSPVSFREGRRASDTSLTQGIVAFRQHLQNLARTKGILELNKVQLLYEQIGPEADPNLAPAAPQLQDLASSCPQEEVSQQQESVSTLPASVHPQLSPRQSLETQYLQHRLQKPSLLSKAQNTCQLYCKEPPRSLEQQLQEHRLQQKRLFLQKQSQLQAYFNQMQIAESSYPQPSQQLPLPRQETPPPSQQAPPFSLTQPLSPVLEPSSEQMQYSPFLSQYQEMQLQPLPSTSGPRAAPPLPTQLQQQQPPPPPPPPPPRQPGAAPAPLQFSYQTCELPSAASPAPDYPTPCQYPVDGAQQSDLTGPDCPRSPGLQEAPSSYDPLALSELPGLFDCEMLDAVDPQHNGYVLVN

Turning to `COc1cc(-c2coc3cc(OCCN4CCC4)ccc23)cc(OC(F)F)c1C(=O)N[C@@H]1C[C@@H]1F` [Compound 75, 4-(6-(2-(azetidin-1-yl)ethoxy)benzofuran-3-yl)-2-(difluoromethoxy)-N-((1R,2S)-2-fluorocyclopropyl)-6-methoxybenzamide], the IC50 was determined as 1740 nM in experiment [1], 16 nM in experiment [2] and 93 nM in experiment [3].
The matching figures for `COc1cc(-c2coc3cc(OCCN4CCC(C(F)(F)F)C4)ccc23)cc(OC(F)F)c1C(=O)N[C@@H]1C[C@@H]1F` (stereo partly drawn) [Compound 76, 2-(difluoromethoxy)-N-((1R,2S)-2-fluorocyclopropyl)-6-methoxy-4-(6-(2-(3-(trifluoromethyl)pyrrolidin-1-yl)ethoxy)benzofuran-3-yl)benzamide]: 1010 nM, 34 nM and 34 nM.
The matching figures for `COc1cc(-c2coc3cc(OCCN4CCC[C@H]4C)ccc23)cc(OC(F)F)c1C(=O)N[C@@H]1C[C@@H]1F` [Compound 77, 2-(difluoromethoxy)-N-((1R,2S)-2-fluorocyclopropyl)-6-methoxy-4-(6-(2-((R)-2-methylpyrrolidin-1-yl)ethoxy)benzofuran-3-yl)benzamide]: 3370 nM, 27 nM and 80 nM.
On the same counts, the results for `COc1cc(-c2coc3cc(OCCN4CC[C@@H](C)C4)ccc23)cc(OC(F)F)c1C(=O)N[C@@H]1C[C@@H]1F` [Compound 78, 2-(difluoromethoxy)-N-((1R,2S)-2-fluorocyclopropyl)-6-methoxy-4-(6-(2-((R)-3-methylpyrrolidin-1-yl)ethoxy)benzofuran-3-yl)benzamide] are 1890 nM, 19 nM and 42 nM.
As for `COc1cc(-c2coc3cc(OCCN4CC[C@@H](OC)C4)ccc23)cc(OC(F)F)c1C(=O)N[C@@H]1C[C@@H]1F` [Compound 79, 2-(difluoromethoxy)-N-((1R,2S)-2-fluorocyclopropyl)-6-methoxy-4-(6-(2-((R)-3-methoxypyrrolidin-1-yl)ethoxy)benzofuran-3-yl)benzamide], the IC50 in experiment [1] was found to be 2190 nM; in experiment [2] it was 19 nM; in experiment [3] it was 57 nM.
On the same counts, the results for `COc1cc(-c2coc3cc(OCCN4CCC[C@@H]4C)ccc23)cc(OC(F)F)c1C(=O)N[C@@H]1C[C@@H]1F` [Compound 80, 2-(difluoromethoxy)-N-((1R,2S)-2-fluorocyclopropyl)-6-methoxy-4-(6-(2-((S)-2-methylpyrrolidin-1-yl)ethoxy)benzofuran-3-yl)benzamide] are 2850 nM, 20 nM and 54 nM.
Turning to `COc1cc(-c2coc3cc(OCCN4CC[C@H](C)C4)ccc23)cc(OC(F)F)c1C(=O)N[C@@H]1C[C@@H]1F` [Compound 81, 2-(difluoromethoxy)-N-((1R,2S)-2-fluorocyclopropyl)-6-methoxy-4-(6-(2-((S)-3-methylpyrrolidin-1-yl)ethoxy)benzofuran-3-yl)benzamide], the half-maximal inhibitory concentration (IC50) was 1890 nM in experiment [1], 11 nM in experiment [2] and 32 nM in experiment [3].
Regarding `COc1cc(-c2coc3cc(OCCN4CC[C@H](OC)C4)ccc23)cc(OC(F)F)c1C(=O)N[C@@H]1C[C@@H]1F` [Compound 82, 2-(difluoromethoxy)-N-((1R,2S)-2-fluorocyclopropyl)-6-methoxy-4-(6-(2-((S)-3-methoxypyrrolidin-1-yl)ethoxy)benzofuran-3-yl)benzamide], the IC50 in experiment [1] came out at 1470 nM; in experiment [2], 15 nM; in experiment [3], 57 nM.
The matching figures for `COc1cc(-c2coc3cc(OCCN4CCN(C)CC4)ccc23)cc(OC(F)F)c1C(=O)N[C@@H]1C[C@@H]1F` [Compound 83, 2-(difluoromethoxy)-N-((1R,2S)-2-fluorocyclopropyl)-6-methoxy-4-(6-(2-(4-methylpiperazin-1-yl)ethoxy)benzofuran-3-yl)benzamide]: 737 nM, 13 nM and 75 nM.
For the compound `COc1cc(-c2coc3cc(OCCCN4CCCCC4)ccc23)cc(OC(F)F)c1C(=O)N[C@@H]1C[C@@H]1F` [Compound 84, 2-(difluoromethoxy)-N-((1R,2S)-2-fluorocyclopropyl)-6-methoxy-4-(6-(3-(piperidin-1-yl)propoxy)benzofuran-3-yl)benzamide], the IC50 in experiment [1] is 559 nM; in experiment [2] it was 9 nM; in experiment [3], 44 nM.
On the same counts, the results for `COc1cc(-c2coc3cc(OCCCN4CCN(C)CC4)ccc23)cc(OC(F)F)c1C(=O)N[C@@H]1C[C@@H]1F` [Compound 85, 2-(difluoromethoxy)-N-((1R,2S)-2-fluorocyclopropyl)-6-methoxy-4-(6-(3-(4-methylpiperazin-1-yl)propoxy)benzofuran-3-yl)benzamide] are 236 nM, 8.1 nM and 32.8 nM.
For `COc1cc(-c2coc3cc(OCCCN4CCOCC4)ccc23)cc(OC(F)F)c1C(=O)N[C@@H]1C[C@@H]1F` [Compound 86, 2-(difluoromethoxy)-N-((1R,2S)-2-fluorocyclopropyl)-6-methoxy-4-(6-(3-morpholinopropoxy)benzofuran-3-yl)benzamide], the IC50 in experiment [1] was found to be 562 nM; in experiment [2], 18 nM; in experiment [3] it was 43 nM.
Take `COc1cc(-c2coc3cc(OCCN4CCC(F)(F)C4)ccc23)cc(OC(F)F)c1C(=O)N[C@@H]1C[C@@H]1F` [Compound 87, 2-(difluoromethoxy)-4-(6-(2-(3,3-difluoropyrrolidin-1-yl)ethoxy)benzofuran-3-yl)-N-((1R,2S)-2-fluorocyclopropyl)-6-methoxybenzamide]: the values for the IC50 in experiment [1], in experiment [2] and in experiment [3] were 1090 nM, 78 nM and 22 nM, respectively.
The matching figures for `COc1cc(-c2coc3cc(OCCN4CCC[C@H](C)C4)ccc23)cc(OC(F)F)c1C(=O)N[C@@H]1C[C@@H]1F` [Compound 88, 2-(difluoromethoxy)-N-((1R,2S)-2-fluorocyclopropyl)-6-methoxy-4-(6-(2-((S)-3-methylpiperidin-1-yl)ethoxy)benzofuran-3-yl)benzamide]: 4540 nM, 17 nM and 68 nM.
The matching figures for `COc1cc(-c2coc3cc(OCCN4CCC[C@@H](C)C4)ccc23)cc(OC(F)F)c1C(=O)N[C@@H]1C[C@@H]1F` [Compound 89, 2-(difluoromethoxy)-N-((1R,2S)-2-fluorocyclopropyl)-6-methoxy-4-(6-(2-((R)-3-methylpiperidin-1-yl)ethoxy)benzofuran-3-yl)benzamide]: 4210 nM, 24 nM and 74 nM.
The matching figures for `COc1cc(-c2coc3cc(OCCN4CC[C@H](C(C)C)C4)ccc23)cc(OC(F)F)c1C(=O)N[C@@H]1C[C@@H]1F` [Compound 90, 2-(difluoromethoxy)-N-((1R,2S)-2-fluorocyclopropyl)-4-(6-(2-((R)-3-isopropylpyrrolidin-1-yl)ethoxy)benzofuran-3-yl)-6-methoxybenzamide]: 2350 nM, 13 nM and 33 nM.
For the compound `COc1cc(-c2coc3cc(OCCN4CCCC[C@@H]4C)ccc23)cc(OC(F)F)c1C(=O)N[C@@H]1C[C@@H]1F` [Compound 91, 2-(difluoromethoxy)-N-((1R,2S)-2-fluorocyclopropyl)-6-methoxy-4-(6-(2-((S)-2-methylpiperidin-1-yl)ethoxy)benzofuran-3-yl)benzamide], the values for the IC50 in experiment [1], in experiment [2] and in experiment [3] were 2500 nM, 31 nM and 74 nM, respectively.
On the same counts, the results for `COc1cc(-c2coc3cc(OCCN4CCCC[C@H]4C)ccc23)cc(OC(F)F)c1C(=O)N[C@@H]1C[C@@H]1F` [Compound 92, 2-(difluoromethoxy)-N-((1R,2S)-2-fluorocyclopropyl)-6-methoxy-4-(6-(2-((R)-2-methylpiperidin-1-yl)ethoxy)benzofuran-3-yl)benzamide] are 3010 nM, 32 nM and 104 nM.
On the same counts, the results for `COc1cc(-c2coc3cc(OCCN4CCC(C)(C)C4)ccc23)cc(OC(F)F)c1C(=O)N[C@@H]1C[C@@H]1F` [Compound 93, 2-(difluoromethoxy)-4-(6-(2-(3,3-dimethylpyrrolidin-1-yl)ethoxy)benzofuran-3-yl)-N-((1R,2S)-2-fluorocyclopropyl)-6-methoxybenzamide] are 2530 nM, 30 nM and 60 nM.
On the same counts, the results for `COc1cc(-c2coc3cc(OCCN4CCC(C)CC4)ccc23)cc(OC(F)F)c1C(=O)N[C@@H]1C[C@@H]1F` [Compound 94, 2-(difluoromethoxy)-N-((1R,2S)-2-fluorocyclopropyl)-6-methoxy-4-(6-(2-(4-methylpiperidin-1-yl)ethoxy)benzofuran-3-yl)benzamide] are 2870 nM, 33 nM and 74 nM.
